According to patent US20140171455A1, “Reduction of Microglia-Mediated Neurotoxicity by Kv1.3 Inhibition” (The Regents of the University of California, priority 2011, published 2014):
Like-named read-outs stand apart in the source and are kept apart here. Bridge positions count the residues as written; N and C are the ends. Peptide text beside a SMILES is read from it.

How the values were obtained:
[1] = rats; cited from earlier work
[2] = rhesus macaques; cited from earlier work
[3] = rodents or primates; cited from earlier work
cultured mouse microglia = experiment: Abeta-induced activation of cultured mouse microglia (proliferation, morphology, NFkB, NO, TNF-alpha); format: cell-based
Description: FIGS. 1A and 1B show data regarding AβO-induced NFκ-B and NO, respectively.
Two (2) hours after administration of the indicated treatment, the mouse brains were sectioned and immunostained with an antibody for p65 of NFκB to mark cells with NFκB activation. Numbers of p65-positive cells per 200 DAPI-labeled cells were determined.
(§1) Measurements were made in the conditioned medium and normalized to the amount of total cellular protein in each culture. n=4-6, *p<0.001 compared with control, **p<0.001 compared with the “AβO” group. […] NO released by AβO-treated microglia is the major soluble mediator of AβO-induced microglial neurotoxicity.

microglia = experiment: Abeta uptake (phagocytosis) assay in microglia by flow cytometry; format: cell-based; conditions: 2 hrs pre-treatment
From the text: Using an Aβ uptake assay, Applicants pretreated microglia with either control (vehicle only), anti-SRA (scavenger receptor A) antibody, doxycycline or PAP-1. FIG. 2 is a bar graph showing cell-associated fluorescence as measured by flow cytometry after 2 hrs of such pre-treatment. (n=3, *p<0.01 and **p<0.001 compared with control).

[4] = tested on: rat hippocampal slices (CA1 LTP); experiment: CA1 LTP induction in rat hippocampal slices with AbO; format: cell-based; conditions: PAP-1 10 μM pretreatment 30 min prior to AbO 50 nM; 45 min after HFS
Description: FIG. 7 summarizes an experiment wherein, under control conditions, CA1 LTP was induced by high frequency stimulation (HFS), which consists of 4 trans of 100Hz basal intensity stimulation lasting for 1 s per train. In control (vehicle only) group, following the HFS, the amplitude or slope of fEPSP was increased to 209±28% of baseline at 45 min after HFS. The bath application of AbO (50 nM) for 10 min blocked the induction of LTP (126±6.7% of control). […] The mean of five consecutive measurements at the end of LTP induction (45 min) was normalized to the baseline (100%) which was the mean of five consecutive measurements just before the HFS.

[5] = tested on: AβO-stimulated cultured microglia; experiment: AbetaO-induced microglial neurotoxicity (cultured microglia); format: cell-based, mouse; conditions: co-treating AβO-stimulated cultured microglia; AβO 20 nM, PAP-1 1 μM
From the text: as §1

hippocampal slices = experiment: Hippocampal slices: AbetaO-induced microglia activation and neuronal damage; format: cell-based, mouse; conditions: AβO 20 nM, PAP-1 1 μM
From the text: Three consecutive hippocampal slices were obtained from mouse brain and from mice received the same indicated treatment. One slice was used for CD11b staining (green) for activated microglia (slices outlined by Hoechst stain), one for propidium iodide (PI) uptake, and one for Fluoro-Jade C stain for neuronal damage. DG: dentate gyrus.

[6] = cited from earlier work
Kv1.3 = biological target: T1, Kv1.3 (Mus musculus, UniProt P16390); experiment: Whole-cell voltage-clamp of Kv currents in cultured stimulated microglia; format: cell-based; conditions: read-out: IC50 on microglial Kv current
T1 construct: pharmacological characterization of currents from cultured microglia stimulated for 48 hours with AbO or LPS; endogenous in cells; host or cells: primary microglia cultured from newborn C57Bl/6 mice, stimulated 48 h with AbO or LPS
T1 sequence (P16390 whole entry): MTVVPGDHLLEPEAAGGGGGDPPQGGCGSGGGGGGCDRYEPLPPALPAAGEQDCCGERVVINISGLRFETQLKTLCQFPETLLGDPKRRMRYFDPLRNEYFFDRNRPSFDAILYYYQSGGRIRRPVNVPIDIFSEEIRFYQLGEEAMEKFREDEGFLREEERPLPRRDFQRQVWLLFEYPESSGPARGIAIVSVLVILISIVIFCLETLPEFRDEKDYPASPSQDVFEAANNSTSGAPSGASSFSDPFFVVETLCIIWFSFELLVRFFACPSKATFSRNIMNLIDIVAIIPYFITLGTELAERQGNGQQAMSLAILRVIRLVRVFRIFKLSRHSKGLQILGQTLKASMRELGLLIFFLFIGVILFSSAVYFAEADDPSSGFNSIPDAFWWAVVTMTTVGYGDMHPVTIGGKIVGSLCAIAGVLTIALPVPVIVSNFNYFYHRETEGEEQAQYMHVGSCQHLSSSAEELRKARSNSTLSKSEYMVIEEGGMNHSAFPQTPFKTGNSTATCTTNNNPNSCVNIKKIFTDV
Description: In order to determine if Kv1.3 is indeed functionally expressed in mouse microglia Applicants performed electrophysiological experiments on cultured mouse microglia in the whole-cell mode of the patch-clamp technique. Kv currents were elicited with 500 millisecond pulses from a holding-potential of −100 mV to +40 mV applied every 45 sec.
Microglia cultured from newborn C57B1/6 mice were treated with lipopolysaccharides (LPS) or AbO for 24 or 48 hrs. […] Kv currents were elicited by 500 ms voltage steps from −80 to 40 mV (representative traces on right).

Structure (SMILES)	half-life [1] [h]	half-life [2] [h]	long-term toxicity [3]	signs of microglia activation induced by AβO (proliferation, morphological transformation, NFκ-B activation, NO production) (cultured mouse microglia; cultured mouse microglia, AβO 20 nM, PAP-1 1 μM)	increased microglia release of tumor necrosis factor-α, NFκ-B activation and NO production induced by fAβ stimulation (cultured mouse microglia; fAβ stimulation)	Aβ cell-associated fluorescence (ability of microglia to phagocytose Aβ) (microglia)	inhibition by AbO of the induction of CA1 LTP [4]	AβO-induced microglial neurotoxicity [5]	AβO-induced microglia activation (CD11b staining) (hippocampal slices)	AβO-induced neuronal damage (propidium iodide uptake and Fluoro-Jade C staining) (hippocampal slices)	oral bioavailability ([6]; in vivo, po)	brain concentrations versus plasma concentrations (crosses the blood brain barrier) ([6]; pharmacokinetic studies)	IC50 (Kv1.3; cultured microglia stimulated for 48 hours with AbO) [pM]	IC50 (Kv1.3; cultured microglia stimulated for 48 hours with LPS) [pM]
O=c1ccc2c(OCCCCOc3ccccc3)c3ccoc3cc2o1 [PAP-1, 5-(4-Phenoxybutoxy)psoralen]	3	6.7	has not exhibited long-term toxicity	inhibited	blocked	did not impair	prevented	blocked	substantially reduced	blocked	orally bioavailable	equal or slightly exceed plasma-concentrations	–	–
CC[C@H](C)[C@H](NC(=O)[C@@H](N)[C@@H](C)O)C(=O)N[C@H](C(=O)N[C@@H](CC(N)=O)C(=O)N[C@H](C(=O)N[C@@H](CCCCN)C(=O)N[C@H]1CSSC[C@@H]2NC(=O)[C@H](CCCCN)NC(=O)[C@H](C)NC(=O)CNC(=O)[C@H](C)NC(=O)[C@H](CO)NC(=O)[C@H](CCC(N)=O)NC(=O)CNC(=O)[C@H](Cc3ccccc3)NC(=O)[C@H](CCC(N)=O)NC(=O)[C@H](C)NC(=O)[C@H](CCCCN)NC(=O)[C@@H]3CSSC[C@@H](C(=O)N[C@@H](Cc4ccc(O)cc4)C(=O)N4CCC[C@H]4C(=O)N[C@@H](Cc4c[nH]cn4)C(=O)O)NC(=O)[C@H](CCCCN)NC(=O)[C@H](CSSC[C@H](NC(=O)[C@H](CCC(N)=O)NC(=O)[C@H](CCCCN)NC(=O)[C@@H]4CCCN4C(=O)[C@H](CO)NC(=O)[C@H]([C@@H](C)O)NC1=O)C(=O)N[C@@H](CC(C)C)C(=O)N1CCC[C@H]1C(=O)N1CCC[C@H]1C(=O)N3)NC(=O)[C@H](CCCCN)NC(=O)CNC(=O)[C@H](CC(N)=O)NC(=O)[C@H](CCSC)NC2=O)C(C)C)[C@@H](C)CC [MgTX] (H-TIINVKCTSPKQCLPPCKAQFGQSAGAKCMNGKCKCYPH-OH; disulfide 7-29, 13-34, 17-36 (inferred); N-terminus and C-terminus assumed)	–	–	–	–	–	–	–	–	–	–	–	–	79.7	78.9
